This is an account of results in US6794491B1, “Polypeptides, their production and use” (Takeda Chemical Industries, Ltd., priority 1995, dated 2004).

The target of assay [1] is T1, full-length receptor protein expressed CHO cells (CHO-19P2); human pituitary receptor protein (hGR3) (Homo sapiens, UniProt P49683).
T1 construct: to construct a full-length receptor protein expression plasmid pAKKO-19P2; expressed in transfected cells; host or cells: CHO dhfr- cells transfected with pAKKO-19P2 (CHO-19P2; clone CHO-19P2-9)
T1 sequence (P49683 1-370): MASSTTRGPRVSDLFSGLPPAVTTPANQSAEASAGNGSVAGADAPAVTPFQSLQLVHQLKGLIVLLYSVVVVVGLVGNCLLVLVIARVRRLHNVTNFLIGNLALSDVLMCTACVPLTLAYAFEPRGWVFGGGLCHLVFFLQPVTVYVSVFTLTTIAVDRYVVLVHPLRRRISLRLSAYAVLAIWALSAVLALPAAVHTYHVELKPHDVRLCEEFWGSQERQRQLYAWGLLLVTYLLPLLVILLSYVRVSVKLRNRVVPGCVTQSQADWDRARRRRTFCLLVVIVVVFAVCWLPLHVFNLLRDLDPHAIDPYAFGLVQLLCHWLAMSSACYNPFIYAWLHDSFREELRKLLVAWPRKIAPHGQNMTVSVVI
Put plainly: release of arachidonic acid metabolites from CHO-19P2 cells. In kind it is cell-based. The following applies: amount of [3H]arachidonic acid metabolites, 10^−12 M-10^−6 M in 0.05% BSA-HBSS. Here is the method: The full-length receptor protein-expressed CHO cells and mock CHO cells were seeded in a 24-well plate, 0.5×10^5 cells/well, and cultured for 24 hours. Then, [^3H] arachidonic acid was added at a final concentration of 0.25 μCi/well. Sixteen (16) hours after addition of [^3H] arachidonic acid, the cells were rinsed with 0.05% BSA-HBSS and the above-mentioned crude peptide fraction was added, 400 μl/well. The mixture was incubated at 37° C. for 30 minutes and a 300 μl portion of the reaction mixture (400 μl) was added to 4 ml of a scintillator and the amount of [^3H] arachidonic acid metabolite released into the reaction mixture was determined with a scintillation counter.
The activity of the peptide (19P2-L31) synthesized in Example 21 to specifically release arachidonic acid metabolites from CHO-19P2 cells was assayed in the same manner as Example 11. The synthetic peptide was dissolved in degassed dH20 at a concentration of 10^−3M and diluted with 0.05% BSA-HBSS and the activity to promote release of arachidonic acid metabolites from CHO-19P2 cells at each concentration was assayed using the amount of [^3H]arachidonic acid metabolites as the indicator.
The activity of the synthetic equivalent (19P2-L20) of natural peptide P-2 as synthesized in Example 23 to specifically promote release of arachidonic acid metabolites from CHO-19P2 cells was determined as in Example 11. Thus, the synthetic peptide was dissolved in degassed dH2O at a final concentration of 10^−3M and this solution was serially diluted with 0.05% BAS-HBSS. The activity to specifically promote release of arachidonic acid metabolites from CHO-19P2 cells at each concentration was assayed using the amount of [^3H]arachidonic acid metabolites as the indicator.

Assay [2] can be described thus: reserpine-induced hypothermia in mice. In kind it is in vivo, ICR male mice. The following applies: lateral ventricle. On the procedure:
The mature ICR male mice (weight at operation: about 35 g) were anesthetized by administration of pentobarbital (50 mg/kg, i.p.), and then fixed on stereotaxic apparatus. The skull of a said mouse was exposed, then a hole was made by dental drill for guide-cannulization into the left lateral ventricle. The tip of a stainless-steel guide-cannula (24 G, length: 5 mm) for drug injection to lateral ventricle, was inserted to the position of AP: +0.6 mm (from bregma), L: left 1 mm and H: −1 mm (from dura matter). The guide-cannula was fixed onto the skull with adhesive. The cannula-implanted mice were housed as described above and were used for measurements of body temperature at least 3 days after the operation. Reserpine (Apoplon; Daiichi Pharmaceutical) was administered to mice at a dose of 3 mg/kg, s.c., and after 15 hours, each mouse was placed in a cage for the measurement. Then a stainless-steel micro-injection cannula (30 G, length: 6 mm) was inserted into the guide-cannula. The micro-injection cannula was connected to a microsyringe pump with Teflon tube, and injection of PBS or a peptide dissolved in PBS lasted for 2 minutes at a speed of 1 μl/min. The micro-injection cannula was withdrawn after over a period of 2 minutes from end of injection, than the temperature in rectum was measured.
The results are expressed as a mean±S.E.M. Student's t test was used to determine the significance of differences between values from the mice treated with a peptide and the PBS-injected controls. For the purpose of this analysis, p<0.05 was assumed to be the minimal level of significance.

Assay [3] in a line: plasma growth hormone (GH) level in freely moving rats, GHRH-induced. In kind it is in vivo, male Wistar rats. The following applies: 50 nmol into the third ventricle, 5 μg/kg GHRH 10 min later. On the procedure: Mature male Wistar rats were anesthetized with pentobarbital 50 mg/kg i.p. and, as in Example 41, a stainless-steel guide cannula AG-12 (0.4 mm in. dia., 0.5 mm out. dia., EICOM) was implanted in position with its tip situated in the upper part of the third ventricle. After the operation the rats were housed in individual cages and kept for at least 3 days for recuperation and, then, a cannula (30 cm long, 0.5 mm in. dia., 0.9 mm out. dia., Natsume Seisakusho) filled with heparin (200 U/ml)-containing saline was inserted into the right atrium from the right jugular vein under pentobarbital anesthesia. The rats were maintained overnight for complete arousal from anesthesia and then transferred to transparent acrylic cages (30 cm×30 cm×35 cm). A 1 ml tuberculin syringe with a 24-G needle (both by Termo) was connected to the cannula inserted in the atrium and 300 μl of blood was drawn. To prevent clotting, the syringe was filled with 20 μl of saline containing 200 U/ml of heparin beforehand. […] The concentrations of GH in the plasma were determined by radioimmunoassay.
The results were expressed as a mean±S.E.M. To test for significant difference between the group treated with 19P2-L31 dissolved in PBS and the control group treated with PBS alone, Student's t-test was used. […]

“Also recorded” adds a separate entry of the source. Where no end group is shown, it is not given here.

With “Ser-Arg-Ala-His-Gln-His-Ser-Met-Glu-Ile-Arg-Thr-Pro-Asp-Ile-Asn-Pro-Ala-Trp-Tyr-Ala-Gly-Arg-Gly-Ile-Arg-Pro-Val-Gly-Arg-Phe-NH2 (SRAHQHSMEIRTPDINPAWYAGRGIRPVGRF-NH2) [19P2-L31, synthetic ligand polypeptide]”, in assay [1], the “arachidonic acid metabolite-releasing activity” value is on record as “concentration-dependent arachidonic acid metabolite-releasing activity was detected over the range of 10^−12M-10^−6M; also recorded: found in a concentration-dependent manner”. Moreover, the “temperature variation versus PBS-injected control” value in assay [2] (1 nmol, reserpine-treated mice) is “no statistically significant difference”. The “body temperature lowered by reserpine” value in assay [2] (10 nmol, mice, 15 hours after reserpine 3 mg/kg s.c., versus PBS) was “increased significantly”. For the same substance, the “time of maximum increase of body temperature after administration” value in assay [2] (10 nmol, reserpine-treated mice) worked out at 45 min. In assay [3], the “GHRH-induced elevation of plasma GH” value is “significantly inhibited”.
